Values after ≈ are worked out from the molar mass of the structure shown.
How the values were obtained:
[1] = Inhibition of rat liver NADH:cytochrome bc1 reductase
[2] = Inhibition of Candida albicans MY1055 NADH:cytochrome bc1 reductase
Candida albicans [3] = experiment: Antifungal activity against Candida albicans MY1055 assessed as growth inhibition after 24 hrs by liquid microdilution assay; assay type: functional; conditions: MY1055, 24 h
Candida albicans [4] = experiment: Ratio of MIC for Candida albicans MY1055 in presence of 10% mouse plasma to MIC for Candida albicans MY1055 in absence of mouse plasma; assay type: functional
Candida albicans [5] = experiment: Antifungal activity against Candida albicans MY1055 assessed as growth inhibition after 24 hrs by liquid microdilution assay in presence of 10% mouse plasma; assay type: functional
[6] = Inhibition of Candida albicans MY1055 NADH:cytochrome bc1 reductase in presence of 40% mouse plasma; assay type: cell-free
Candida albicans [7] = experiment: Ratio of IC50 for Candida albicans MY1055 NADH:cytochrome bc1 reductase in presence of 40% mouse plasma to IC50 for Candida albicans MY1055 NADH:cytochrome bc1 reductase in absence of mouse plasma

Compound | IC50 [1] [ng/mL] | IC50 [2] [ng/mL] | MIC (Candida albicans [3]) [µg/mL] | Ratio (Candida albicans [4]) | MIC (Candida albicans [5]) [µg/mL] | IC50 [6] [µg/mL] | Ratio IC50 (Candida albicans [7])
C/C=C/[C@@H]1[C@H]2C[C@@H](COC(=O)CC)CC[C@@H]2C(C)=C[C@H]1C(=O)c1c(O)c(-c2ccc(OC(=O)CC)cc2)c[nH]c1=O | > 800 | 10 (≈ 0.0178 µM) | 0.125 (≈ 0.223 µM) |  |  |  | 
C/C=C/[C@@H]1[C@H]2C[C@@H](C)CC[C@@H]2C(C)=C[C@H]1C(=O)c1c(O)c(-c2ccc(OC(=O)C/C=C/c3ccccc3)cc2)c[nH]c1=O | 1600 (≈ 2.77 µM) | 20 (≈ 0.0346 µM) | 0.312 (≈ 0.54 µM) |  |  |  | 
C/C=C/[C@@H]1[C@H]2C[C@@H](C)CC[C@@H]2C(C)=C[C@H]1C(=O)c1c(O)c(-c2ccc(O)cc2)cn(C)c1=O | 250 (≈ 0.559 µM) | 1.6 (≈ 0.00357 µM) | 0.25 (≈ 0.559 µM) |  |  |  | 
C/C=C/[C@@H]1[C@H]2C[C@@H](COC(=O)C3CC3)CC[C@@H]2C(C)=C[C@H]1C(=O)c1c(O)c(-c2ccc(O)cc2)c[nH]c1=O | 40 (≈ 0.0773 µM) | 1.2 (≈ 0.00232 µM) | 0.0313 (≈ 0.0605 µM) | 8 | 0.25 | 0.04 | 20
C/C=C/[C@@H]1[C@H]2C[C@@H](C)CC[C@@H]2C(C)=C[C@H]1C(=O)c1c(O)c(-c2ccc(OC(=O)CCCN)cc2)c[nH]c1=O | 45 (≈ 0.0868 µM) | 0.2 (≈ 0.000386 µM) | 0.031 (≈ 0.0598 µM) |  |  | 0.03 | 150
C/C=C/[C@@H]1[C@H]2C[C@@H](C)CC[C@@H]2[C@](C)(Cl)[C@H]2Oc3ncc(-c4ccc(O)cc4)c(O)c3C(=O)[C@@H]12 | 1000 (≈ 2.14 µM) | 200 (≈ 0.427 µM) | 5 (≈ 10.7 µM) |  |  |  | 
C/C=C/[C@@H]1[C@H]2C[C@@H](CO)CC[C@@H]2C(C)=C[C@H]1C(=O)c1c(O)c(-c2ccc(OC(C)=O)cc2)c[nH]c1=O | > 800 | 160 (≈ 0.325 µM) | 0.5 (≈ 1.02 µM) |  |  |  | 
C/C=C/[C@@H]1[C@H]2C[C@@H](COC(C)=O)CC[C@@H]2C(C)=C[C@H]1C(=O)c1c(O)c(-c2ccc(O)cc2)c[nH]c1=O | > 1600 | 2.1 (≈ 0.00427 µM) | 0.5 (≈ 1.02 µM) |  |  |  | 
C/C=C/[C@@H]1[C@H]2C[C@@H](C)CC[C@@H]2C(C)=C[C@H]1C(=O)c1c(O)c(-c2ccc(OCC)cc2)c[nH]c1=O | 1000 (≈ 2.17 µM) | 1000 (≈ 2.17 µM) | > 5 |  |  |  | 
C/C=C/[C@@H]1[C@H]2C[C@@H](C)CC[C@@H]2C(C)=C[C@H]1C(=O)c1c(O)c(-c2ccc(O)cc2)cn(CC(=O)O)c1=O | 1000 (≈ 2.03 µM) | > 1000 | > 5 |  |  |  | 
C/C=C/[C@@H]1[C@H]2C[C@@H](C)CC[C@@H]2C(C)=C[C@H]1C(=O)c1c(O)c(-c2ccc(OC(=O)/C=C/c3ccsc3)cc2)c[nH]c1=O | > 1000 | 500 (≈ 0.878 µM) | 1 (≈ 1.76 µM) |  |  |  | 
C/C=C/[C@@H]1[C@H]2C[C@@H](C)CC[C@@H]2C(C)=C[C@H]1C(=O)c1c(O)c(-c2ccc(OC(=O)C3CC3)cc2)c[nH]c1=O | > 800 | 15 (≈ 0.0299 µM) | 0.062 (≈ 0.124 µM) |  |  |  | 
C/C=C/[C@@H]1[C@H]2C[C@@H](C)CC[C@@H]2[C@](C)(Br)[C@H]2Oc3ncc(-c4ccc(O)c(Br)c4)c(O)c3C(=O)[C@@H]12 | 1000 (≈ 1.69 µM) | > 1000 | > 5 |  |  |  | 
C/C=C/[C@@H]1[C@H]2C[C@@H](C)CC[C@@H]2C(C)=C[C@H]1C(=O)c1c(OC)ncc(-c2ccc(O)cc2)c1O | > 1000 | 20 (≈ 0.0447 µM) | > 1 |  |  |  | 
C/C=C/[C@@H]1[C@H]2C[C@@H](C)CC[C@@H]2C(C)=C[C@H]1C(=O)c1c(O)c(-c2ccc(OC(=O)c3ccccc3)cc2)c[nH]c1=O | 1000 (≈ 1.86 µM) | 8 (≈ 0.0149 µM) | 1 (≈ 1.86 µM) |  |  |  | 
C/C=C/[C@@H]1[C@H]2C[C@@H](C)CC[C@@H]2C(C)=C[C@H]1C(=O)c1c(O)c(-c2ccc(OC(=O)CCCCN)cc2)c[nH]c1=O | 40 (≈ 0.0751 µM) | 0.1 (≈ 0.000188 µM) | 0.031 (≈ 0.0582 µM) |  |  | 0.03 | 300
C/C=C/[C@@H]1[C@H]2C[C@@H](COC(C)=O)CC[C@@H]2C(C)=C[C@H]1C(=O)c1c(O)c(-c2ccc(OC(C)=O)cc2)c[nH]c1=O | > 800 | 15 (≈ 0.0281 µM) | 0.062 (≈ 0.116 µM) | 8 | 1 | 0.1 | 7
C/C=C/[C@@H]1[C@H]2C[C@@H](C)CC[C@@H]2C(C)=C[C@H]1C(=O)c1c(O)c(-c2ccc(OC(=O)C3CCCC3)cc2)c[nH]c1=O | > 800 | 10 (≈ 0.0189 µM) | 1 (≈ 1.89 µM) |  |  |  | 
C/C=C/[C@@H]1[C@H]2C[C@@H](C)CC[C@@H]2C(C)=C[C@H]1C(=O)c1c(O)c(-c2ccc(O)cc2)cn(CC(=O)OC(C)(C)C)c1=O | 1600 (≈ 2.92 µM) | > 1600 | > 5 |  |  |  | 

Reference: ChEMBL document CHEMBL2380203, “Structure-activity relationship of cytochrome bc1 reductase inhibitor broad spectrum antifungal ilicicolin H” (Bioorg Med Chem Lett, 2013)
